Values joined by “and” are separate entries in the source; they are usually repeats but may differ in a detail not shown here. Equal values may be shown once.
Target: T1, vasopressin-2 receptor (AVP2R) (Homo sapiens, UniProt P30518)
T1 construct: expressed in transfected cells; host or cells: CHO-K1 (PAM format); HEK-293 (agonist format)
Assay: AVP2R cAMP HTRF accumulation assay
Type: cell-based
Conditions: for AVP2R PAM (cAMP) Score (activity score = normalized Emax × pEC50): PAM format
Method in brief: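 CHO-K1 AVP2R cells (PAM format) or HEK-293 AVP2R cells (agonist format) incubated 30 min at room temperature with compounds and vasopressin in HBSS with 5 mM HEPES, 0.5 mM IBMX, 0.075% BSA. cAMP read by HTRF after 30 min; 16-point 2-fold dose–response in duplicate.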

[1] = CHO-K1 AVP2R cells, PAM format with vasopressin, original hits: agonist and PAM data combined, average ± SD

T1 sequence (P30518 whole entry): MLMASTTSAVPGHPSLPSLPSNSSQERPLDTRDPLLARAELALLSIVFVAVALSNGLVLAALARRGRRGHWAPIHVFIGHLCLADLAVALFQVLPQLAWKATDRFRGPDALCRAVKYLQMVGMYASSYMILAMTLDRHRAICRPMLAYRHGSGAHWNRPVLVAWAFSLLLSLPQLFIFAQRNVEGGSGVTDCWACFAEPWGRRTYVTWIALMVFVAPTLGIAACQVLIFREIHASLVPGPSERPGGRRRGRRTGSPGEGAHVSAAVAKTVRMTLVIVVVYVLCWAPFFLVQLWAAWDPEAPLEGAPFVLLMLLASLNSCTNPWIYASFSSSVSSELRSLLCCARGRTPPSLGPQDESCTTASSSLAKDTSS

SMILES	AVP2R PAM (cAMP) Score (activity score = normalized Emax × pEC50) (CHO-K1 AVP2R cells)	EC50 [1] [µM]	Emax [1] [%]	Emax (CHO-K1, CHO-K1 AVP2R cells, PAM format with vasopressin, original hits: agonist and PAM data combined, average ± SD) [%]	AVP2R PAM (cAMP) Emax [1] [%]
CCCc1nc2oc3c(NCCCN(C)C)ncnc3c2c2c1CCCC2 [CMP-28]	3.53	15 ± 13.6	73 ± 16		
CCN(CC)CCNc1ncnc2c1sc1nc(N3CCOCC3)c3c(c12)CCCC3 [CMP-1]	1.0 and 1.02	12 ± 7.1		21	20.7 ± 9.8
